Test results reported in patent publication US11000033B2, “Ketone or oxime compound, and herbicide” (NISSAN CHEMICAL CORPORATION, priority 2014, dated 2021).

Tests used:
Assay type in all cases: in vivo
Digitaria ciliaris = assay: Test Example 4: herbicidal effect by soil treatment (symbol F)
How it was run: (§1)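 Seeds were sown in sterilized diluvial soil, covered with about 1.5 cm of soil, and the soil surface was sprayed with a water-diluted emulsion of the compound at a predetermined rate. Plants grew in a greenhouse at 25° C. to 30° C.; effects were scored visually 3 weeks after application.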

soybean [1] = assay: Test Example 4: effect on crop by soil treatment (symbol d); details: for d: soybean, effect grade on crop: 320 g/ha; for d: soybean, effect on crop grade: application herbicide amount 320 g/ha
How it was run: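 The test used sterilized diluvial soil. Seed was set down in spots and overlaid with about 1.5 cm of soil before growth in a greenhouse kept at 25° C. to 30° C.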

Setaria viridis [2] = assay: Test Example 4: herbicidal effect by soil treatment (symbol G)
How it was run: as §1

beet = assay: Test Example 5: effect on crop by foliage application, plastic box (symbol f); details: 320 g/ha, 3 weeks after application
How it was run: (§2)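 Crop and weed seeds sown in spots in sterilized diluvial soil in plastic boxes and covered with about 1.5 cm soil. Plants raised in a greenhouse at 25° C. to 30° C. for foliar application.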

Stellaria media = assay: Test Example 4: herbicidal effect by soil treatment (symbol P)
How it was run: as §1

soybean [3] = assay: Test Example 5: effect on crop by foliage application, plastic box (symbol d); details: 320 g/ha, 3 weeks after application
How it was run: as §2

[4] = tested on: directly sowed rice plant; assay: Test Example 3: effect on crop by foliage application, Wagner pot (symbol b); details: application herbicide amount 320 g/ha; for b (directly sowed rice plant) effect on crop grade: Table 24
How it was run: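 Greenhouse culture at 25–30 °C of seeded rice, Cyperus difformis, Leptochloa chinensis and Echinochloa crus-galli var. crus-galli, in alluvial soil held under 0.1–0.5 cm of water in a Wagner pot.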

Galium spurium = assay: Test Example 5: herbicidal effect by foliage application, plastic box (symbol Q); details: 320 g/ha, 3 weeks after application
How it was run: (§3)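 After sowing into sterilized diluvial soil and growing two weeks under glass at 25° C. to 30° C., seedlings receive a uniform foliar spray of diluted emulsion. Damage is judged visually three weeks on.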

Setaria viridis [5] = assay: Test Example 5: herbicidal effect by foliage application, plastic box (symbol G); details: 320 g/ha, 3 weeks after application
How it was run: as §3

Scirpus juncoides = assay: Test Example 1: herbicidal activity, application before weed generation in submerged conditions (symbol B); details: application herbicide amount 320 g/ha
How it was run: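 Compound emulsion was diluted to a set herbicide amount and applied to the water surface on the sowing day, into submerged (4 cm) alluvial-soil pots sown with mixed weed seeds and transplanted 2.5-leaf rice. Pots were held in a 25–30 °C greenhouse, and weeds were scored 0–5 by herbicidal ratio after 3 weeks.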

rapeseed = assay: Test Example 5: effect on crop by foliage application, plastic box (symbol g); details: 320 g/ha, 3 weeks after application
How it was run: as §2

[6] = tested on: Echinochloa crus-galli var. crus-galli; assay: Test Example 4: herbicidal effect by soil treatment (symbol H)
How it was run: as §1

[7] = tested on: Echinochloa crus-galli var. crus-galli; assay: Test Example 5: herbicidal effect by foliage application, plastic box (symbol H); details: 320 g/ha, 3 weeks after application
How it was run: as §3

Veronica persica = assay: Test Example 4: herbicidal effect by soil treatment (symbol R)
How it was run: as §1

Monochoria vaginalis = assay: Test Example 2: herbicidal activity, application during weed generation in submerged conditions (symbol C); details: Table 23; application herbicide amount 320 g/ha; grade 0-5 by criteria of Test Example 1
How it was run: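 Seeds sown in flooded alluvial soil (4 cm water) were grown in a 25-30° C greenhouse. At the one- to two-leaf stage, diluted emulsion of compound was applied to the water surface at a predetermined rate. Effect was scored 3 weeks later.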

[8] = application herbicide amount 320 g/ha

Compound | F: Digitaria ciliaris, herbicidal effect grade (Digitaria ciliaris; 320 g/ha) | d: soybean, effect grade on crop (soybean [1]) | G: Setaria viridis, herbicidal effect grade (Setaria viridis [2]; 320 g/ha) | f: beet, effect on crop (criteria 0-5) (beet) | P: Stellaria media, herbicidal effect grade (Stellaria media; 320 g/ha) | d: soybean, effect on crop (criteria 0-5) (soybean [3]) | effect on crop b (directly sowed rice plant), grade 0-5 [4] | Q: Galium spurium, herbicidal effect (criteria 0-5) (Galium spurium) | G: Setaria viridis, herbicidal effect (criteria 0-5) (Setaria viridis [5]) | Herbicidal effect grade, B: Scirpus juncoides (Scirpus juncoides) | g: rapeseed, effect on crop (criteria 0-5) (rapeseed) | H: Echinochloa crus-galli var. crus-galli, herbicidal effect grade ([6]; 320 g/ha) | H: Echinochloa crus-galli var. crus-galli, herbicidal effect (criteria 0-5) [7] | R: Veronica persica, herbicidal effect grade (Veronica persica; 320 g/ha) | Herbicidal effect grade, C: Monochoria vaginalis (Monochoria vaginalis) | F: Digitaria ciliaris, herbicidal effect grade (Digitaria ciliaris; [8]) | d: soybean, effect on crop grade (soybean [1]) | G: Setaria viridis, herbicidal effect grade (Setaria viridis [2]; [8]) | f: beet, effect on crop grade (beet) | P: Stellaria media, herbicidal effect grade (Stellaria media; [8]) | further results
CON=C(C)CC1CC(OC(=O)c2nsc(Cl)c2Cl)=C(c2c(C)cc(C)cc2C)C1=O (stereo not drawn) [1-099] | 5 (Herbicidal ratio of 90% or more (almost completely withered)) | 3 (Herbicidal ratio of 40% or higher and lower than 70%) | 5 (Herbicidal ratio of 90% or more (almost completely withered)) | 1 (Herbicidal ratio of 5% or higher and lower than 20%) | 0 (Herbicidal ratio of 5% or lower (almost no effect)) | 4 (Herbicidal ratio of 70% or higher and lower than 90%) | 5 (Herbicidal ratio of 90% or more (almost completely withered)) | 3 (Herbicidal ratio of 40% or higher and lower than 70%) | 5 (Herbicidal ratio of 90% or more (almost completely withered)) | 4 (Herbicidal ratio of 70% or higher and lower than 90%) | 5 (Herbicidal ratio of 90% or more (almost completely withered)) | 5 (Herbicidal ratio of 90% or more (almost completely withered)) | 5 (Herbicidal ratio of 90% or more (almost completely withered)) | 0 (Herbicidal ratio of 5% or lower (almost no effect)) | 2 (Herbicidal ratio of 20% or higher and lower than 40%) | – | – | – | – | – | –
COc1cc(Br)cc(C)c1C1=C(O)CC(CC(=O)C2CC2)C1=O (racemic) [14-001] | – | – | – | – | – | – | – | – | – | – | – | – | – | – | 1 (Herbicidal ratio of 5% or higher and lower than 20%) | 5 (Herbicidal ratio of 90% or more (almost completely withered)) | 0 (Herbicidal ratio of 5% or lower (almost no effect)) | 5 (Herbicidal ratio of 90% or more (almost completely withered)) | 0 (Herbicidal ratio of 5% or lower (almost no effect)) | 0 (Herbicidal ratio of 5% or lower (almost no effect)) | d: soybean, effect on crop grade (soybean [3]): 2 (Herbicidal ratio of 20% or higher and lower than 40%); b (directly sowed rice plant) effect on crop grade [4]: 5 (Herbicidal ratio of 90% or more (almost completely withered)); Q: Galium spurium, herbicidal effect grade (Galium spurium): 0 (Herbicidal ratio of 5% or lower (almost no effect)); G: Setaria viridis, herbicidal effect grade (Setaria viridis [5]): 5 (Herbicidal ratio of 90% or more (almost completely withered)); B (Scirpus juncoides) herbicidal effect grade (Scirpus juncoides): 3 (Herbicidal ratio of 40% or higher and lower than 70%); g: rapeseed, effect on crop grade (rapeseed): 4 (Herbicidal ratio of 70% or higher and lower than 90%); H: Echinochloa crus-galli var. crus-galli, herbicidal effect grade [6, 8]: 5 (Herbicidal ratio of 90% or more (almost completely withered)); H: Echinochloa crus-galli var. crus-galli, herbicidal effect grade [7]: 5 (Herbicidal ratio of 90% or more (almost completely withered)); R: Veronica persica, herbicidal effect grade (Veronica persica; [8]): 0 (Herbicidal ratio of 5% or lower (almost no effect))
CON=C(C)CC1CC(OS(=O)(=O)N(C)C)=C(c2c(C)cc(C)cc2C)C1=O (stereo not drawn) [1-122] | 2 (Herbicidal ratio of 20% or higher and lower than 40%) | 0 (Herbicidal ratio of 5% or lower (almost no effect)) | 3 (Herbicidal ratio of 40% or higher and lower than 70%) | 0 (Herbicidal ratio of 5% or lower (almost no effect)) | 0 (Herbicidal ratio of 5% or lower (almost no effect)) | 4 (Herbicidal ratio of 70% or higher and lower than 90%) | 5 (Herbicidal ratio of 90% or more (almost completely withered)) | 0 (Herbicidal ratio of 5% or lower (almost no effect)) | 5 (Herbicidal ratio of 90% or more (almost completely withered)) | 5 (Herbicidal ratio of 90% or more (almost completely withered)) | 5 (Herbicidal ratio of 90% or more (almost completely withered)) | 4 (Herbicidal ratio of 70% or higher and lower than 90%) | 5 (Herbicidal ratio of 90% or more (almost completely withered)) | 0 (Herbicidal ratio of 5% or lower (almost no effect)) | 0 (Herbicidal ratio of 5% or lower (almost no effect)) | – | – | – | – | – | –
CC(CC1CC(O)=C(c2c(C)cc(C)cc2C)C1=O)=NOCc1cccc(C(F)(F)F)c1 (stereo not drawn) [1-117] | 4 (Herbicidal ratio of 70% or higher and lower than 90%) | 0 (Herbicidal ratio of 5% or lower (almost no effect)) | 5 (Herbicidal ratio of 90% or more (almost completely withered)) | 0 (Herbicidal ratio of 5% or lower (almost no effect)) | 0 (Herbicidal ratio of 5% or lower (almost no effect)) | 0 (Herbicidal ratio of 5% or lower (almost no effect)) | 5 (Herbicidal ratio of 90% or more (almost completely withered)) | 0 (Herbicidal ratio of 5% or lower (almost no effect)) | 5 (Herbicidal ratio of 90% or more (almost completely withered)) | 5 (Herbicidal ratio of 90% or more (almost completely withered)) | 5 (Herbicidal ratio of 90% or more (almost completely withered)) | 5 (Herbicidal ratio of 90% or more (almost completely withered)) | 5 (Herbicidal ratio of 90% or more (almost completely withered)) | 0 (Herbicidal ratio of 5% or lower (almost no effect)) | 3 (Herbicidal ratio of 40% or higher and lower than 70%) | – | – | – | – | – | –
CCC(=O)CC1CC(O)=C(c2c(C)cc(Br)cc2OC)C1=O (racemic) [14-002] | – | – | – | – | – | – | – | – | – | – | – | – | – | – | 0 (Herbicidal ratio of 5% or lower (almost no effect)) | 5 (Herbicidal ratio of 90% or more (almost completely withered)) | 0 (Herbicidal ratio of 5% or lower (almost no effect)) | 5 (Herbicidal ratio of 90% or more (almost completely withered)) | 0 (Herbicidal ratio of 5% or lower (almost no effect)) | 0 (Herbicidal ratio of 5% or lower (almost no effect)) | d: soybean, effect on crop grade (soybean [3]): 1 (Herbicidal ratio of 5% or higher and lower than 20%); b (directly sowed rice plant) effect on crop grade [4]: 5 (Herbicidal ratio of 90% or more (almost completely withered)); Q: Galium spurium, herbicidal effect grade (Galium spurium): 0 (Herbicidal ratio of 5% or lower (almost no effect)); G: Setaria viridis, herbicidal effect grade (Setaria viridis [5]): 5 (Herbicidal ratio of 90% or more (almost completely withered)); B (Scirpus juncoides) herbicidal effect grade (Scirpus juncoides): 1 (Herbicidal ratio of 5% or higher and lower than 20%); g: rapeseed, effect on crop grade (rapeseed): 4 (Herbicidal ratio of 70% or higher and lower than 90%); H: Echinochloa crus-galli var. crus-galli, herbicidal effect grade [6, 8]: 5 (Herbicidal ratio of 90% or more (almost completely withered)); H: Echinochloa crus-galli var. crus-galli, herbicidal effect grade [7]: 5 (Herbicidal ratio of 90% or more (almost completely withered)); R: Veronica persica, herbicidal effect grade (Veronica persica; [8]): 0 (Herbicidal ratio of 5% or lower (almost no effect))
